Experimental data reported in paper PMC11178545, “Alkynyl nicotinamides show antileukemic activity in drug-resistant acute myeloid leukemia” (The Journal of Clinical Investigation, 2024).
pIC50: −log10 of the molar value. Where “and” joins values, the source holds several entries; their conditions need not be identical. Equal entries are not always repeated. Where two headings read alike, the source gives them in different places.

Tests used:
[1] = test system: BaF3 cells transduced with Flt3ITD/ITD, with IL3; experiment: BaF3 Flt3ITD/ITD proliferation in the presence of IL3 (Supplementary Figure 3A); settings: replicates
[2] = test system: BaF3 cells expressing FLT3ITD; experiment: BaF3 proliferation, colorimetric WST-1 assay; type: cell-based, murine; settings: for proliferation, colorimetric assay: BaF3/FLT3 ITD, 48 hours, replicates; for pIC50: Mus musculus
[3] = test system: BaF3 cells expressing FLT3ITD-D835Y; experiment: BaF3 proliferation, colorimetric WST-1 assay; settings: for proliferation, colorimetric assay: BaF3/FLT3 ITD-D835Y, 48 hours, replicates; for pIC50: Mus musculus, BaF3, read-out: IC50, growth inhibition
[4] = concentration 0.016 (unit not given)
[5] = concentration 0.08 (unit not given)
[6] = concentration 0.4 (unit not given)
[7] = concentration 2 (unit not given)
[8] = concentration 10 (unit not given)
[9] = concentration 50 (unit not given)
[10] = concentration 250 (unit not given)
[11] = concentration 1000 (unit not given)
[12] = concentration 5000 (unit not given)

SMILES	Supplementary Figure 3A - BaF3-ITD+IL3 proliferation [1, 4]	Supplementary Figure 3A - BaF3-ITD+IL3 proliferation [1, 5]	Supplementary Figure 3A - BaF3-ITD+IL3 proliferation [1, 6]	Supplementary Figure 3A - BaF3-ITD+IL3 proliferation [1, 7]	Supplementary Figure 3A - BaF3-ITD+IL3 proliferation [1, 8]	Supplementary Figure 3A - BaF3-ITD+IL3 proliferation [1, 9]	Supplementary Figure 3A - BaF3-ITD+IL3 proliferation [1, 10]	Supplementary Figure 3A - BaF3-ITD+IL3 proliferation [1, 11]	Supplementary Figure 3A - BaF3-ITD+IL3 proliferation [1, 12]	proliferation, colorimetric assay [2, 4]	proliferation, colorimetric assay [2, 5]	proliferation, colorimetric assay [2, 6]	proliferation, colorimetric assay [2, 7]	proliferation, colorimetric assay [2, 8]	proliferation, colorimetric assay [2, 9]	proliferation, colorimetric assay [2, 10]	proliferation, colorimetric assay [3, 4]	proliferation, colorimetric assay [3, 5]	proliferation, colorimetric assay [3, 6]	proliferation, colorimetric assay [3, 7]	also measured
Cc1ccc(C(=O)Nc2ccc(CN3CCN(C)CC3)c(C(F)(F)F)c2)cc1C#Cc1cnc2cccnn12 [Ponatinib]	100.2	100.413	94.562	103.021 and 110.146 and 131.879	104.504 and 106.518 and 133.143	106.029 and 102.109 and 134.35	109.055 and 106.007 and 134.452	75.4094 and 10.3894	0.9902 and -0.5808	103.303 and 29.4843 and 104.802 and 107.771	103.551 and 112.425 and 114.204	63.9851 and 109.481 and 101.917	12.349 and 96.4027 and 63.939 and 105.862	7.628 and 22.9278 and 11.2521 and 38.4511	2.92 and 5.376 and 0.7258 and 6.47	5.173 and 2.723 and -0.4582 and 0.3438	105.632	110.397 and 108.415 and 100.457	112.735 and 103.362 and 108.642	92.8711 and 101.44 and 100.79	pIC50 ([2]; BaF3, read-out: IC50, growth inhibition): 8.60; proliferation, colorimetric assay [3, 8]: 111.954 and 107.659; proliferation, colorimetric assay [3, 9]: 78.5183 and 101.652 and 95.7414; proliferation, colorimetric assay [3, 10]: 19.3842 and 49.6264 and 16.1584; proliferation, colorimetric assay [3, 11]: 2.173 and 0.6094; pIC50 [3]: 6.79
CNC(=O)c1cc(Oc2ccc(NC(=O)Nc3ccc(Cl)c(C(F)(F)F)c3)cc2)ccn1 [Sorafenib]	102.183	99.8176	106.455	107.595 and 105.229 and 115.278	111.02 and 105.412 and 136.419	101.081 and 115.196 and 123.039	102.541 and 117.007 and 139.808	122.84 and 135.916	77.5171 and 4.823	16.3815 and 107.167 and 106.617 and 105.393	11.5881 and 112.929 and 104.573 and 131.213	10.6541 and 113.594 and 9.4402 and 110.22	98.6784 and 107.329 and 5.2213 and 125.689	18.373 and 31.6289 and 5.419 and 106.507	7.163 and 11.5817 and 3.098 and 23.7431	5.383 and 5.798 and 3.082 and 8.355	94.7245	78.2586 and 100.59 and 93.5618	71.3463 and 101.258 and 87.9764	114.498 and 101.128 and 64.2837	pIC50 ([2]; BaF3 FLT3ITD, read-out: IC50, growth inhibition): 9.05; proliferation, colorimetric assay [3, 8]: 112.637 and 109.063 and 80.4355; proliferation, colorimetric assay [3, 9]: 116.564 and 100.156 and 98.1229; proliferation, colorimetric assay [3, 10]: 119.18 and 103.897 and 90.2769; proliferation, colorimetric assay [3, 11]: 83.0213 and 52.2833; pIC50 [3]: 5.96
